This is an account of results in patent US7179461B2, “Plasminogen activator to prevent corneal and subepithelial haze after laser vision correction surgery” (The Johns Hopkins University, priority 2000, dated 2007).

The subject of data set [1] is rabbit corneal endothelium. The following applies: perfused in vitro for three hours, concentrations up to 5,000 IU/ml; cited from earlier work.
Data set [2] concerns corneal haze after PRK. The settings on record: rabbits, excimer laser PRK; cited from earlier work.
The target in data set [3] is urokinase-type plasminogen activator (Homo sapiens, UniProt P00749). The following applies: cited from earlier work.
The target in data set [4] is T1, urokinase-type plasminogen activator (uPA) in rabbit tears (Oryctolagus cuniculus, UniProt Q8MHY7).
T1 construct: from tissue; host or cells: rabbit tear fluid collected with glass capillaries
T1 sequence (Q8MHY7 17-433): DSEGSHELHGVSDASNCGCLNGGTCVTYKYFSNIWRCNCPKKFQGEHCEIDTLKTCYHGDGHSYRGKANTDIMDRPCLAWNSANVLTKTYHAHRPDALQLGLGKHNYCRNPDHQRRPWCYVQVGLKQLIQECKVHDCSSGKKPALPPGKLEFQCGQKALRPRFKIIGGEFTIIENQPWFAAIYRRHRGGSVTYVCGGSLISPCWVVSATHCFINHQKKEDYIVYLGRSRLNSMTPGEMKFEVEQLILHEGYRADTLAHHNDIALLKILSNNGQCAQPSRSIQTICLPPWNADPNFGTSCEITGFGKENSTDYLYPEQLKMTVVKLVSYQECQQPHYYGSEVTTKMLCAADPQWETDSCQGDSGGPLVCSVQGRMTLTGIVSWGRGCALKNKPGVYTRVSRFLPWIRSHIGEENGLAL
The experiment in a line: Plasminogen activator activity in rabbit tears after PRK, spectrophotometric method with human plasminogen and S-2251. It is filed as in vivo, New Zealand rabbits. As for the experimental part: Both eyes in each of 8 rabbits underwent PRK treatment. One eye of each rabbit was treated with a serine protease inhibitor (SPI) over the first 7 days to inactivate uPA in the tears and on the surface of the cornea. uPA in the tear samples was measured by a spectrophotometric method using human plasminogen and chromogenic peptide substrate S-2251.
Materials and Methods Sixteen eyes of eight normal healthy New Zealand rabbits (3.0–3.5 kg) underwent PRK surgery for spherical correction using the Schwind Keratom II ArF excimer laser (193 nm), performed by the same surgeon at Vital-Laser LLC, Department of Ophthalmology, University Medical School of Debrecen. Animals were handled and treated in adherence to the ARVO Statement for the Use of Animals in Ophthalmic and Vision Research. De-epithelialization was performed with a blunt Keratome Blade knife after epithelial marking with a 6.0–6.5 mm Hoffer trephine. The epithelium was scraped gently from periphery to center. Residual epithelial debris was removed with a sterile microsponge.
Topical anesthetic (0.4% oxybuprocaine hydrochloride) eye drops were administered twice before the surgery. General anesthesia was accomplished by intravenous injection of ketamine-xylazine (2.2:1 ratio, 10 mg/kg). The PRK surgeries were performed on the morning of day 1. The postoperative treatment included antibiotic eye drops, Ciloxan (Alcon), twelve times (hourly) on day 1 and five times (every two hours) on five additional days (postoperative days 2–5 and 7). FLUCON™ (Alcon) and TEARS NATURALE™ (Alcon) were given 5 times daily (every two hours) during the first postoperative month, reduced to 4 times daily (every three hours) for the second month and 3 times daily (every four hours) for the third month. All rabbits received follow-up examinations at 1, 3 and 6 months following the PRK procedure.
In addition, the left eye of each rabbit received 1 drop of 10,000 KIE/ml serine protease inhibitor (SPI), aprotinin (Gordox, Richter Gideon Rt., Budapest), twelve times (hourly) on day 1 and five times (every two hours) on five additional days (postoperative days 2–5 and 7). This was designated the “With-SPI” group. The right eyes were not treated with SPI and were designated the “No-SPI” group. After the seventh day, identical treatment was used on both eyes. No other treatment was used during the six month follow-up period. […] Lottenberg R, Sjak-Shie N, Fazleabas A T, Roberts R M. Aprotinin inhibits urokinase but not tissue-type plasminogen activator. Thromb Res 1988;49:549–556; and Fritz H, Wunderer G. Biochemistry and applications of aprotinin, the kallikrein inhibitor from bovine organs. Arzneim Forsch 1983;33:479–494.
Tear samples for plasminogen activator activity analyses were obtained on the day before the PRK surgery (day 0). Tear samples were collected within minutes after PRK (day 1), before treatment with any eye drops. Daily on postoperative days 2–5, on postoperative day 7 and every fourth day thereafter for three months (91 days), tears were sampled in the morning prior to the administration of any eye drops on the given day so that SPI treatment would not change the uPA levels.
Samples consisted of tears collected with glass capillaries using i.m. injection of pilocarpine hydrochloride (5 mg/kg) for stimulation. Tears were taken from the lower tear meniscus and care was taken not to touch the conjunctiva. The same collection method was used throughout the study. The duration of the sampling time was recorded and the secretion rate was calculated in μl/min, dividing the obtained tear volume by the time of sample collection. Samples used in this investigation had secretion rates of 15–50 μl/min. Samples were centrifuged (1800 rpm) for 8–10 minutes right after sample collection and supernatants were immediately deep-frozen at −80° C. and were thawed only once for measurements. […]

Read-outs that look alike come from different tables or passages of the source.

Take urokinase: in data set [1], the “Endothelial mosaic under scanning electron microscopic scrutiny” value is “retains a normal endothelial mosaic”, the “Swelling of rabbit corneas” value is recorded as “does not induce meaningful swelling” and the “Toxicity to rabbit corneal endothelium” value is “non-toxic”.
Take `CO[C@@]12[C@H](COC(N)=O)C3=C(C(=O)C(C)=C(N)C3=O)N1C[C@@H]1N[C@@H]12` [mitomycin C]: the “Effect on corneal haze after PRK” value in data set [2] was “reduce haze after PRK”.
aprotinin [SPI]: the “Inhibition of plasminogen activator (urokinase) activity” value was “effective inhibitor of plasminogen activator activity” in data set [3] and “especially effective for inhibiting urokinase” in data set [3] (listed as Aprotinin). Also, the “Day by which mean uPA levels returned to preoperative levels” value in data set [4] (SPI-treated rabbit eyes, SPI over first 7 days) was 15 days. In data set [4] (SPI-treated rabbit eyes, period of SPI suppression), the “uPA activity, mean value averaged over days 1–7” value was 0.13 (0.15) IU/ml. Moreover, in data set [4] (SPI-treated rabbit eyes, versus days 19–91 level, p<0.001), the “Mean uPA activity on days 1–7 lower than the equilibrium plasminogen activator activity level” value was 95%. Also, the “PAA: With-SPI, mean (SD), equilibrium level” value in data set [4] (averaged over days 19–91, rabbit tears) is 2.88 (0.22) IU/ml. In addition, the “PAA: With-SPI, mean (SD)” value is 2.77 (0.26) IU/ml in data set [4] (day 0 (day before PRK, before SPI), rabbit tears, 8 eyes); 0.42 (0.47) IU/ml in data set [4] (day 1 (within minutes after PRK, before eye drops), rabbit tears); 0.18 (0.21) IU/ml in data set [4] (day 2, rabbit tears, sampled in the morning before SPI drops, 10,000 KIE/ml SPI); 0.04 (0.03) IU/ml in data set [4] (day 3, rabbit tears, sampled before SPI drops); 0.03 (0.04) IU/ml in data set [4] (day 4, rabbit tears, sampled before SPI drops); 0.05 (0.05) IU/ml in data set [4] (day 5, rabbit tears, sampled before SPI drops). The “PAA: With-SPI, mean (SD)” value in data set [4] (day 7, rabbit tears, sampled before SPI drops) is on record as 0.05 (0.04) IU/ml; in data set [4] (day 11 (after end of SPI treatment), rabbit tears), 2.63 (0.18) IU/ml; in data set [4] (day 15, rabbit tears) it was 2.76 (0.18) IU/ml.
